The target of this assay is T1, GGCT (Homo sapiens, UniProt O75223).
T1 sequence (O75223 1-188): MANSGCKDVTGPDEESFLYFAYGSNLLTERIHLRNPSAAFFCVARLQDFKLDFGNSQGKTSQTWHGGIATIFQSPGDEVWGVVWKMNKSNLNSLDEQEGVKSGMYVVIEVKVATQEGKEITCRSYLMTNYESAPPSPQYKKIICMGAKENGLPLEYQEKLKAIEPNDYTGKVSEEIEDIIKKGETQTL
As to the kind of experiment: thin layer chromatography, ninhydrin. Type of assay: biochemical. Conditions: glycine release.

Consider `N[C@@H](CCC(=O)NCC(=O)O)C(=O)O` [γ-glutamyl-glycine], for which the “thin layer chromatography, ninhydrin” value is “Both GGCT and Botch release glycine by cleavage of γ-glutamyl-glycine”.

Values taken from publication PMC4031649 (Cell reports, 2014).
